We go through 19 compounds from patent US8026257B2 (Bristol-Myers Squibb Company, priority 2007, dated 2011).

Counter-ions that a name gives are not always drawn.

In one assay the target is T1, NK-1 (Homo sapiens, UniProt P25103).
T1 construct: 30 ul/well of a 2×U373 membrane preparation
Kind of assay: NK1 radioligand binding assay ([125I]Substance P, U373 membranes). The following applies: U373 cell membranes, 200 pM [125I]Substance P, 1 hour at room temperature. The procedure: (§1) NK-1 Binding assay. Crude membrane suspensions were prepared for the NK1 and SERT radioligand binding assays from U373 cells or recombinant HEK-293 cells expressing hSERT, respectively. Cells were harvested from T-175 flasks as follows. The medium is removed from the flasks and the cells rinsed with HBSS without Ca and without Mg. The cells are then incubated for 5-10 minutes in 10 mM Tris-Cl, pH 7.5, 5 mM EDTA before the cells are lifted with a combination of pipetting and scraping, as needed. To prepare membranes, the cell suspension is collected into centrifuge bottles and homogenized for 30 seconds with a Polytron homogenizer. The suspension is centrifuged for 30 min@32,000×g, 4° C., then the supernatant is decanted and the pellet resuspended and homogenized in 50 mM Tris-Cl, pH 7.5, 1 mM EDTA for 10 seconds. The suspension is then centrifuged again for 30 min@32,000×g, 4° C. The supernatant is decanted and the pellet resuspended in 50 mM Tris-Cl, pH 7.5, 1 mM EDTA and briefly homogenized. A Bradford assay (Bio-rad) is performed and the membrane preparation diluted to 2 mg/ml with 50 mM Tris-Cl, pH 7.5, 1 mM EDTA. Aliquots are prepared, and then frozen and stored at −80° C.
NK1 radioligand binding assay. Compounds are dissolved in 100% DMSO at a concentration 100× the desired highest assay concentration, serially diluted 1:3 in 100% DMSO, and 0.6 ul/well of each solution is dispensed to a Nunc polypropylene, round bottom, 384 well plate. 100% inhibition is defined with 0.6 ul/well of 1 mM L-733,060 (Sigma L-137) dissolved in DMSO. 30 ul/well of a 2×U373 membrane preparation (267 ug/ml in 100 mM Tris-Cl, pH 7.5, 6 mM MgCl2, 0.2% (v/v) Sigma mammalian protease inhibitor cocktail (Sigma P-8340), and 4 ug/ml chymostatin, Sigma C-7268) and 30 ul/well of a 2× radioligand solution (400 pM [^125I]Substance P (Perkin ElmerNEX-190) in 1% (w/v) BSA (Sigma A-2153), 0.1 mg/ml bacitracin, Sigma B-0125) are added to the well and the reaction incubated for 1 hour at room temperature. The contents of the assay plate are then transferred to a Millipore MultiscreenHTS GF/B filter plate which has been pretreated with 0.5% PEI for at least one hour. The plate is vacuum filtered and washed with 7 washes of 100 ul/well of 20 mM Tris-Cl, pH 7.5, 0.5% (w/v) BSA chilled to 4° C. The filtration and washing is completed in less than 90 s. The plates are air-dried overnight, 12 ul/well of MicroScint scintillation fluid added, and the plates counted in a Trilux.
(§2) Data analysis. The raw data are normalized to percent inhibition using control wells defining 0% (DMSO only) and 100% (selective inhibitor) inhibition which are run on each plate. Each plate is run in triplicate, and the concentration response curve thus generated is fit using the four-parameter dose response equation, Y=Bottom+(Top-Bottom)/(1+10^((LogIC50−X)*HillSlope)) in order to determine the IC50 value for each compound. The radioligand concentration chosen for each assay corresponds to the Kd concentration determined through saturation binding analysis for each assay.

Another assay deals with hSERT (Homo sapiens, UniProt P31645). Kind of assay: SERT radioligand binding assay ([125I]RTI-55, HEK-hSERT membranes). To be noted: HEK-293 hSERT membranes, 260 pM [125I]RTI-55, 1 hour at room temperature; read-out: SERT IC50. The procedure:
as §1
SERT radioligand binding assay. Compounds are dissolved in 100% DMSO at a concentration 100× the desired highest assay concentration, serially diluted 1:3 in 100% DMSO, and 0.4 ul/well of each solution is dispensed to a Nunc polypropylene, round bottom, 384 well plate. 100% inhibition is defined with 0.4 ul/well of 1 mM fluoxetine (Sigma F-132) dissolved in DMSO. 20 ul/well of a 2× HEK-hSERT membrane preparation (15 ug/ml in 50 mM Tris-Cl, pH 7.5, 120 mM NaCl, 5mM KCl) and 20 ul/well of a 2× radioligand solution (520 pM [^125I]RTI-55 (Perkin-Elmer NEX-272) in 50 mM Tris-Cl, pH 7.5, 120 mM NaCl, 5mM KCl) are added to each well and the reaction incubated for 1 hour at room temperature. The contents of the assay plate are then transferred to a Millipore MultiscreenHTs GF/B filter plate which has been pretreated with 0.5% PEI for at least one hour. The plate is vacuum filtered and washed with 7 washes of 100 ul/well of 50 mM Tris-Cl, pH 7.5, 120 mM NaCl, 5 mM KCl chilled to 4° C. The filtration and washing is completed in less than 90 s. The plates are air-dried overnight, 12 ul/well of MicroScint scintillation fluid added, and the plates counted in a Trilux.
as §2

T1 sequence (P25103 whole entry): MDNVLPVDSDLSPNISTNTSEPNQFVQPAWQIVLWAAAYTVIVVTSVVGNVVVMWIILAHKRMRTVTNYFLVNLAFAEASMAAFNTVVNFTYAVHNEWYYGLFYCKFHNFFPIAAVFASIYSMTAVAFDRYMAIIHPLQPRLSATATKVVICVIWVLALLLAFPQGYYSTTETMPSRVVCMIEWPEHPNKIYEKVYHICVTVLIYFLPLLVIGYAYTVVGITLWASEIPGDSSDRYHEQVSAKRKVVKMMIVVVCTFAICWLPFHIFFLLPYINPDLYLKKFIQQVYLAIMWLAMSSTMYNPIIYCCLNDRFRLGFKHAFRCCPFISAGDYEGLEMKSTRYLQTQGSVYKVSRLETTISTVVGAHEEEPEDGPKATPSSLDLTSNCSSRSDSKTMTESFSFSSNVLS
Chain of hSERT (P31645 whole entry): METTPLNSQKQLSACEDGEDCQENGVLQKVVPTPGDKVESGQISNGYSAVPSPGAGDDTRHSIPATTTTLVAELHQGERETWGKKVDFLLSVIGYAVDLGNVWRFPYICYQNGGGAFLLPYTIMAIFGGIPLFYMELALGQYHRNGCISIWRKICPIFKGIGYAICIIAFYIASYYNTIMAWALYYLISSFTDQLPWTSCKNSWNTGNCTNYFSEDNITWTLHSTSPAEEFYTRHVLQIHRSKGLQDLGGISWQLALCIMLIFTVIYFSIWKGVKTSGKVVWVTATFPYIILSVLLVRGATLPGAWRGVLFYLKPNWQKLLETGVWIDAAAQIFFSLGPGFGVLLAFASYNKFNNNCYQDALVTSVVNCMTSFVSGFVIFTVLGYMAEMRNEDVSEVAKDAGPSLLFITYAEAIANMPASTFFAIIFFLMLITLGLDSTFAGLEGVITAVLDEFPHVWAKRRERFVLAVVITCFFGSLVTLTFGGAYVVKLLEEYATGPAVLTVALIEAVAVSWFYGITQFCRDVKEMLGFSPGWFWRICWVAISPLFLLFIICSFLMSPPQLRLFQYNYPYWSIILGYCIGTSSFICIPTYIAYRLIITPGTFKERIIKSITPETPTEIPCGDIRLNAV

One may read the IC50 as the point on the concentration scale where inhibition reaches its midpoint. For `Cc1cc(C(C)OCC2(c3ccc(F)cc3)CCN(C)CC2)c2c(cnn2CC(F)F)c1` (racemic) [Example 60, (±)-1-(2,2-Difluoroethyl)-7-(1-((4-(4-fluorophenyl)-1-methylpiperidin-4-yl)methoxy)ethyl)-5-methyl-1H-indazole], the IC50 on NK-1 and at hSERT was 0.01 to 100 nM in each case.

Take `Cc1cc(C(C)OCC2(c3ccc(F)cc3)CCN(C)CC2)c2nn(CC(F)F)cc2c1` (racemic) [Example 61, (±)-2-(2,2-Difluoroethyl)-7-(1-((4-(4-fluorophenyl)-1-methylpiperidin-4-yl)methoxy)ethyl)-5-methyl-2H-indazole]: the IC50 at NK-1 and on hSERT was 0.01 to 100 nM each time.

With `Cc1cc(C(C)OCC2(c3ccc(F)cc3)CCN(C)CC2)c2c(cnn2CC2CC2)c1` (racemic) [Example 62, (±)-1-(Cyclopropylmethyl)-7-(1-((4-(4-fluorophenyl)-1-methylpiperidin-4-yl)methoxy)ethyl)-5-methyl-1H-indazole], the IC50 on NK-1 and at hSERT was 0.01 to 100 nM each time.

Regarding `Cc1cc(C(C)OCC2(c3ccc(F)cc3)CCN(C)CC2)c2nn(CC3CC3)cc2c1` (racemic) [Example 63, (±)-2-(Cyclopropylmethyl)-7-(1-((4-(4-fluorophenyl)-1-methylpiperidin-4-yl)methoxy)ethyl)-5-methyl-2H-indazole], the IC50 at NK-1 and at hSERT was 0.01 to 100 nM each time.

On to `Cc1cc(C(C)OCC2(c3ccc(F)cc3)CCN(C)CC2)c2c(cnn2C2CC2)c1` (racemic) [Example 64, (±)-1-Cyclopropyl-7-(1-((4-(4-fluorophenyl)-1-methylpiperidin-4-yl)methoxy)ethyl)-5-methyl-1H-indazole], for which the IC50 at NK-1 and at hSERT was 0.01 to 100 nM each time.

`CC(OCC1(c2ccccc2)CCN(C)CC1)c1cc(C(F)(F)F)cc2cc[nH]c12` (racemic) [Example 70, (±)-7-(1-((1-Methyl-4-phenylpiperidin-4-yl)methoxy)ethyl)-5-(trifluoromethyl)-1H-indole]: the IC50 on NK-1 fell in the range of 0.01 to 100 nM; on hSERT it was 100 to 300 nM.

Turning to `CC(OCC1(c2ccccc2)CCN(C)CC1)c1cc(C(F)(F)F)cc2ccn(C)c12` (racemic) [Example 71, (±)-1-Methyl-7-(1-((1-methyl-4-phenylpiperidin-4-yl)methoxy)ethyl)-5-(trifluoromethyl)-1H-indole], the IC50 at NK-1 and at hSERT was 0.01 to 100 nM in each case.

Regarding `CC(OCC1(c2ccc(F)cc2)CCN(C)CC1)c1cc(C(F)(F)F)cc2cc[nH]c12` (racemic) [Example 72, (±)-7-(1-((4-(4-Fluorophenyl)-1-methylpiperidin-4-yl)methoxy)ethyl)-5-(trifluoromethyl)-1H-indole], the IC50 at NK-1 and at hSERT was 0.01 to 100 nM throughout.

With `CC(OCC1(c2ccc(F)cc2)CCN(C)CC1)c1cc(C(F)(F)F)cc2ccn(C)c12` (racemic) [Example 73, (±)-7-(1-((4-(4-Fluorophenyl)-1-methylpiperidin-4-yl)methoxy)ethyl)-1-methyl-5-(trifluoromethyl)-1H-indole], the IC50 on NK-1 and on hSERT was 0.01 to 100 nM each time.

Regarding `CC(OCC1(c2ccc(F)cc2)CCN(C)CC1)c1cc(C(F)(F)F)cc2c1NC(=O)C2` (racemic) [Example 123, (±)-7-(1-((4-(4-fluorophenyl)-1-methylpiperidin-4-yl)methoxy)ethyl)-5-(trifluoromethyl)indolin-2-one], the IC50 on NK-1 and at hSERT was 0.01 to 100 nM throughout.

Consider `CC(OCC1(c2ccc(F)cc2)CCN(C)CC1)c1cc(Cl)cc2c(C#N)c[nH]c12` (racemic) [Example 124, (±)-5-chloro-7-(1-((4-(4-fluorophenyl)-1-methylpiperidin-4-yl)methoxy)ethyl)-1H-indole-3-carbonitrile], for which the IC50 at NK-1 and on hSERT was 0.01 to 100 nM in each case.

For `Cc1c[nH]c2c(C(C)OCC3(c4ccc(F)cc4)CCN(C)CC3)cc(C(F)(F)F)cc12` (racemic) [Example 126, (±)-7-(1-((4-(4-fluorophenyl)-1-methylpiperidin-4-yl)methoxy)ethyl)-3-methyl-5-(trifluoromethyl)-1H-indole], the IC50 on NK-1 and on hSERT was 0.01 to 100 nM each time.

Turning to `CC(OCC1(c2ccc(F)cc2)CCN(C)CC1)c1cc(C(F)(F)F)cc2c1ccn2C` (racemic) [Example 127, (±)-4-(1-((4-(4-fluorophenyl)-1-methylpiperidin-4-yl)methoxy)ethyl)-1-methyl-6-(trifluoromethyl)-1H-indole], the IC50 on NK-1 and on hSERT was 0.01 to 100 nM in each case.

In the case of `CC(OCC1(c2ccc(F)cc2)CCN(C)CC1)c1cc(C(F)(F)F)cc2[nH]ccc12` (racemic) [Example 128, (±)-4-(1-((4-(4-fluorophenyl)-1-methylpiperidin-4-yl)methoxy)ethyl)-6-(trifluoromethyl)-1H-indole], the IC50 at NK-1 and at hSERT was 0.01 to 100 nM each time.

Regarding `CC(OCC1(c2ccc(F)cc2)CCNCC1)c1cc(C(F)(F)F)cc2c1CC(=O)N2` (racemic) [Example 129, (±)-4-(1-((4-(4-fluorophenyl)piperidin-4-yl)methoxy)ethyl)-6-(trifluoromethyl)indolin-2-one, TFA], the IC50 at NK-1 lay in the range of 100 to 300 nM; at hSERT, 0.01 to 100 nM.

Take `CC(OCC1(c2ccc(F)cc2)CCNCC1)c1cc(C(F)(F)F)cc2cn[nH]c12` (single isomer, unassigned) [Example 22, 7-(1-((4-(4-Fluorophenyl)piperidin-4-yl)methoxy)ethyl)-5-(trifluoromethyl)-1H-indazole]: the results for the IC50 on NK-1 and on hSERT were 100 to 300 nM and 0.01 to 100 nM, respectively.

`CC(OCC1(c2ccc(F)cc2)CCN(C)CC1)c1cc(C(F)(F)F)cc2cn[nH]c12` (single isomer, unassigned) [Example 23, 7-(1-((4-(4-Fluorophenyl)-1-methylpiperidin-4-yl)methoxy)ethyl)-5-(trifluoromethyl)-1H-indazole]: the IC50 on NK-1 lay in the range of 100 to 300 nM; on hSERT, 0.01 to 100 nM.

For `CC(OCC1(c2ccc(F)cc2)CCNCC1)c1cc(C(F)(F)F)cc2cn[nH]c12` (single isomer, unassigned) [Example 24, 7-(1-((4-(4-Fluorophenyl)piperidin-4-yl)methoxy)ethyl)-5-(trifluoromethyl)-1H-indazole], the IC50 at NK-1 and on hSERT was 0.01 to 100 nM in each case.

As for `CC(OCC1(c2ccc(F)cc2)CCN(C)CC1)c1cc(C(F)(F)F)cc2cn[nH]c12` (single isomer, unassigned) [Example 25, 7-(1-((4-(4-Fluorophenyl)-1-methylpiperidin-4-yl)methoxy)ethyl)-5-(trifluoromethyl)-1H-indazole], the IC50 at NK-1 and at hSERT was 0.01 to 100 nM in each case.
